# Laboratory results as given in US20230089267A1, “Compositions and Methods For Reducing Immune Intolerance and Treating Autoimmune Disorders” (Lapix Therapeutics, Inc., priority 2021, published 2023).
# Structures can show the parent of a compound that is named as a salt.
# Experiments:
# [1] = tested on: FoxP3+/CD4+ T-cells in splenocytes from naïve C57BL/6 mice; assay: In vitro dose-response, percent FoxP3+/CD4+ T-cells in murine splenocytes; format: cell-based; conditions: for EC50 / EC90: Mus musculus, T-cell, percent FoxP3+/CD4+ T-cells, 72 hours, 4-parameter log-logistic model fit; for mean FoxP3+/CD4+ T-cells, upper plateau, mean (SEM): high dose; for mean FoxP3+/CD4+ T-cells, upper plateau, mean (SEM) / mean FoxP3+/CD4+ T-cells, lower plateau, mean (SEM): from model fitting; for mean FoxP3+/CD4+ T-cells, lower plateau, mean (SEM): low dose
# Method: All animal studies were conducted under IACUC number B2020-91 and in compliance with Tufts University/Tufts Medical Center & Human Nutrition Research Center on Aging. Animals were housed four in a cage and had access to food and water ad libitum. Anti-FoxP3 and anti-CD4 for flow cytometry were obtained from eBioscience. Compounds 1-3 were formulated with 10% DMPC in PBS. PS liposomes were synthesized at a 30:70 PS:lipid molar ratio.
# Splenocytes from naïve C57BL/6 mice were stained with CFSE, seeded at 2×10^5 cells/well, and dosed with each compound from 1e^−4 μM to 3.0e^−9 μM using a log 2 dilution scheme. Cells were incubated for 72 hours before phenotyping for FoxP3+/CD4+ T-cells. Flow cytometer analysis was performed to assess changes in percent FoxP3+/CD4+ T-cells as a function of compound and dose. Concentration versus response was fitted to a 4-parameter, log-logistic model using the “dre” package in “R”. Both EC50 and EC90 were obtained by model fitting.
# Cells were observed via a microscope at the end of the incubation period. All cells looked healthy and suitable for flow cytometry analysis.
# Table 2 summarizes EC50 and EC90 values obtained from the model fitting.
# [2] = tested on: MOG35-55-induced murine EAE model; assay: MOG35-55-induced murine EAE model, Compound 2 versus Compound 8 (Example 12); format: in vivo, mice; conditions: 3 μg/mouse/day SC, after ten days of treatment
# Method: Mice were immunized with 100 μg MOG35-55 emulsified with CFA and pertussis toxin, as described in Example 4. At disease onset (clinical score 1), mice were randomized into two treatment groups, and received 3 μg/mouse/day SC of either Compound 2 or Compound 8.
# [3] = tested on: MOG35-55-induced murine EAE model; assay: Induction/maintenance treatment paradigm in MOG35-55-induced murine EAE model (Example 9); format: in vivo, mice
# Method: Compound 2, natalizumab and DMF were prepared as described in Example 8. Table 5 (see Example 4) details the expected clinical symptoms and scoring criteria used in this study.
# This study was designed to evaluate the therapeutic effects of Compound 2 versus natalizumab in a treatment induction/maintenance paradigm (induction cohort), and Compound 2 versus DMF after natalizumab (maintenance cohort). In the induction cohorts, animals were randomized 2:1:1 natalizumab:Compound 2:control when they reached a score of 2.5, as per FIG. 6A. Animals in the natalizumab cohort were given 100 μg natalizumab/mouse every 3 days for 3 doses before being randomized to the maintenance cohort. Animals randomized into the maintenance cohort after natalizumab received maintenance doses of DMF or Compound 2 (1:1 randomization), as per their group assignment for 14 days. Animals in the Compound 2 induction cohort were dosed with 30 μg Compound 2/mouse SC QD for a maximum of 7 days, or 3 consecutive days of disease score <2.5, at which time they were placed on a maintenance dose of 3 μg/mouse SC QD for 14 days. All animals in all groups were monitored for 14 days after the last dose for disease score and survival.
# Disease control (induction therapy): Disease control was defined as maintaining a clinical score of 2.5 or less after randomization. Animals in the different treatment groups were monitored after the 2:1:1 randomization. Clinical scores were recorded daily for all animals and plotted over time. A score of >2.5 was recorded as an event and analyzed by survival analysis in GraphPad Prism 9. Animals not reaching a clinical score of 2.5 by the end of the induction period (day 7) were assigned a score of zero for the survival analysis.
# Survival (induction therapy): Death due to disease (clinical score 5) during the treatment induction period was recorded as an event “1”, animals surviving until the end of the induction period, day 7 after randomization, were censored on day 7 for the purposes of survival analysis.
# Disease control (maintenance therapy): At the end of the induction period with natalizumab, animals were randomized 1:1 to the DMF maintenance group or Compound 2 maintenance group as per FIG. 6A. Animals were dosed for 14 days, and clinical scores were monitored daily.
# Survival (maintenance therapy): Death by disease (clinical score of 5) was recorded as an event “1”, death due to ulceration or ex vivo analysis was recorded as “0”. Animals surviving until the end of the study were recorded as “0” on the last day of the study. Survival analysis was done in GraphPad Prism 9.
# [4] = tested on: MOG35-55-induced murine EAE model; assay: Escalation treatment paradigm in MOG35-55-induced murine EAE model (Example 8); format: in vivo, mice
# Method: Compound 2 (0.03 mg/ml) was formulated with hydroxypropyl beta cyclodextrin (HPCD) 1:80 (Compound 2:HPCD) and stored at 4° C. until use. Natalizumab, an anti-α4β1 integrin antibody is a monoclonal antibody that is approved by U.S. Food and Drug Administration (FDA) for the treatment of relapsing forms of MS. […] Natalizumab was diluted in PBS to a final concentration of 15 mg/ml before dosing. DMF is a disease-modifying therapy (DMT) recommended for the treatment of active relapsing multiple sclerosis. DMF (1 g) was dissolved in 50 ml of 4% solution of METHOCEL© to give a 20 mg/ml solution of DMF. The solution was stored at 4° C. until use.
# Experimental autoimmune (allergic) encephalomyelitis (EAE) is considered to be the best non-clinical model of multiple sclerosis (MS). Over 6,000 papers have been published in scientific journals on this model. EAE is characterized by immune responses against CNS tissue and can be induced in animals by immunizing them against proteins of the CNS. In the active EAE model, mice are immunized with MOG35-55 peptide emulsified in Complete Freund's Adjuvant (CFA) by subcutaneous injection at the tail base (100 μg of […] per mouse) under anesthesia. On the day of injection (Day 0) and two days later (Day 2), mice receive an intraperitoneal injection of pertussis toxin (PT) in PBS at 200 ng/mouse/dose (0.1 mL). Symptoms typically develop in mice 9-14 days after immunization (Day 0). Daily observation and scoring of mice start on Day 7 and continue until the end of the study. Table 5 (see Example 4 above) details the expected clinical symptoms and the scoring criteria used in this study.
# This study was designed to evaluate the early sustained use of Compound 2 versus DMF in a treatment escalation paradigm (sustained use cohort), and Compound 2 versus natalizumab after DMF failure (escalation cohort). All animals in the escalation cohorts received 14 doses of DMF or Compound 2, or 3 doses of natalizumab, as per group assignment.
# Probability of disease control: Disease control was defined as a clinical score of less than 2.5. Animals in the different treatment groups were monitored after the 3:1:1 randomization. A score of 2.5 was recorded as an event and analyzed by survival analysis in GraphPad Prism 9. Animals not reaching a clinical score of 2.5 by day 14, the end of the treatment period, were assigned a score of zero for the survival analysis.
# Efficacy of Compound 2 versus DMF in early sustained use: Animals in the DMF group that reached a score of 2.5 were randomized 1:1:1, as per FIG. 5A. Animals randomized to continue DMF treatment were given the remainder of the 14 DMF doses. Animals from the first randomization that were treated with Compound 2 after disease onset continued treatment for a total of 14 doses. After the 14th dose, treatment was stopped and clinical score and overall survival were monitored.
# Efficacy of Compound 2 versus natalizumab in a treatment escalation cohort: Animals in the DMF group that reached a score of 2.5 were randomized 1:1:1, as per FIG. 5A. Animals randomized to natalizumab were dosed 100 μg/mouse IV every 3 days for 3 total doses starting the same day a score of 2.5 was recorded. Animals randomized to Compound 2 were dosed with 3 μg/mouse SC QD for 14 total doses starting on the same day a score of 2.5 was recorded.
# Overall survival: Death due to the disease was monitored in the early sustained use cohort as well as the escalation cohort. Death by disease (clinical score of 5) was recorded as an event “1,” death due to ulceration or for ex vivo analysis was recorded as “0.” Animals surviving until the end of the study were recorded “0” on day 27. Survival analysis was done in GraphPad Prism 9.
# passive MG model = assay: Passive myasthenia gravis model, adoptive transfer to RAG2−/− mice; format: in vivo; conditions: by day 10, SC daily for ten days
# Method: In this passive MG model in B6 mice, donor mice (n=20, aged 6-8 weeks) were immunized with complete Freund's adjuvant (CFA) and nicotinic acetylcholine receptor (AChR) emulsion weekly for four weeks. Seven days after the last immunization, splenocytes were collected, and 10^6 cells/mouse were transferred to RAG2^−/− mice. The recipient mice (n=10/group) were treated one day after adoptive transfer with prednisone (1 μg/mouse) SC daily for ten days after disease onset or Compound 2 3 μg SC daily for ten days after disease onset, or were left untreated. Minimal manifestation of disease was defined as a return to a clinical score of 1 after an exacerbation (score 2 or higher). Time to return to minimal score was logged, and the likelihood of return was plotted for untreated animals, and standard of care (SOC; prednisone)- and Compound 2-treated animals.
# [5] = maintenance after natalizumab induction
# [6] = escalation cohort after DMF failure (score 2.5), by day 14 after switching
compound,measurement,setting,value
"CCCCCC(=O)O[C@@H](COC(C)=O)CO[PH](=O)OC[C@H](N)C(=O)O (stereo partly shown) [PS, phosphatidylserine, reference compound]",EC50,[1],0.133 nM
same,EC90,[1],0.314 nM
"N[C@@H](CNC(=O)Cc1ccc(OCc2cccc3ccccc23)cn1)C(=O)O [Compound 8, (S)-2-Amino-3-(2-(5-(naphthalen-1-ylmethoxy)pyridin-2-yl)acetamido)propanoic acid]","mean clinical score, comparison of the two groups",[2],no statistical difference
"COC(=O)/C=C/C(=O)OC [DMF, dimethyl fumarate, reference compound]",mean clinical score of animals randomized to maintenance therapy after natalizumab induction,[3]; at start of maintenance,2.5 (SD=0.4)
same,animals that progressed to clinical score 5 (death by disease),[3]; [5],3 out of 4
same,"last measured score, day 7 after initiation of maintenance",[3]; [5],4.37 (SD=1.2)
same,mortality rate in maintenance cohort,"[3]; maintenance after natalizumab induction, n=4 in each group",75%
same,disease course in early sustained use cohort,"[4]; 14 doses, followed to end of study","progressed at the same rate as untreated control animals, with all animals reaching a clinical score of 5 by end of the study"
same,"overall survival, early sustained use cohort",[4]; to day 27,all animals in the DMF-treated group died by day 26
same,animals that progressed to a score of 2.5,"[4]; treatment from disease onset (score 1), within 7 days of disease onset",All animals (n=30)
"N[C@@H](CNC(=O)Cc1ccc(OC(c2ccccc2)c2ccccc2)cc1)C(=O)O [Compound 3, (S)-2-amino-3-(2-(4-(benzhydryloxy)phenyl)acetamido)propanoic acid]","potency relative to PS, as measured by EC50 and EC90","[1]; EC50 and EC90, respectively",two and one orders of magnitude higher (more potent) than PS
same,EC50,[1],3.76 nM
same,EC90,[1],20.4 nM
same,"mean FoxP3+/CD4+ T-cells, upper plateau, mean (SEM)",[1],3.48%
same,"mean FoxP3+/CD4+ T-cells, lower plateau, mean (SEM)",[1],1.32%
"C[C@]12C=CC(=O)C=C1CC[C@@H]1[C@@H]2C(=O)C[C@@]2(C)[C@H]1CC[C@]2(O)C(=O)CO [prednisone, reference compound]",animals returned to minimal manifestation of disease (score 1),passive MG model,46%
natalizumab: anti-α4β1 integrin monoclonal antibody approved by FDA for the treatment of relapsing forms of MS [reference compound],mice showing clinical score improvement and switched to maintenance before end of induction period,[3]; induction period,0/18
same,animals that survived the treatment induction period,"[3]; induction period, day 7 after randomization",11/18
same,mice that died before completing the induction therapy,[3]; induction therapy,38.8%
same,mean clinical score by day 7 of induction,"[3]; randomized at score 2.5, Compound 2 30 μg SC",3.61 (SD=1.17)
same,animals that progressed to a clinical score >2.5 during induction,"[3]; randomized at score 2.5, natalizumab 100 μg/mouse every 3 days, Compound 2 30 μg SC",12
same,mean clinical score after switching from DMF,[4]; [6],3.6 (SD=1.6)
same,median clinical score after switching from DMF,[4]; [6],3.75
same,"animals that survived until day 27, escalation cohort",[4]; switched from DMF,6 out of 9
"N[C@@H](CNC(=O)Cc1ccc(OCc2ccccc2)cc1)C(=O)O [Compound 1, (S)-2-amino-3-(2-(4-(benzyloxy)phenyl)acetamido)propanoic acid]",EC50,[1],2.06 nM
same,EC90,[1],688 nM
same,"mean FoxP3+/CD4+ T-cells, upper plateau, mean (SEM)",[1],5.18%
same,"mean FoxP3+/CD4+ T-cells, lower plateau, mean (SEM)",[1],1.47%
